Source: EP0536208B1, “1,2-DIHYDRO-3H-DIBENZISOQUINOLINE-1,3-DIONE ANTICANCER AGENTS” (RESEARCH CORPORATION TECHNOLOGIES, INC., priority 1990, dated 1992)

Key:
205p14 = experiment: Activity against human colon tumor cells (MTT assay, 3 day drug exposure); format: cell-based; conditions: cells plated 24 hr. prior to drug addition, read-out: Concentration for 50% inhibition of colony formation for human colon tumors
Procedure: (§1) For example, the compounds of the present invention were evaluated for cytotoxic activities in cloned human colon carcinomas. The clonogenic assays were conducted in accordance with the procedure described hereinbelow: 1) Colony Forming Assays in Soft Agar: Fresh human or murine tumors are disaggregated into single cell suspensions using mechanical, hypoosmotic and/or enzymatic (trypsin) methods. The single cells (about 5 X 10^4-10^5) are plated in 35 mm plastic petri dishes onto a 1 ml "feeder layer" of 0.3% agar dissolved in growth medium containing 5-10% vol/vol of heat-inactivated fetal bovine serum, molten 0.3% agar and the antibiotics penicillin (100 u/mL) and streptomycin (100 ug/mL). Drug exposures can be performed for one hour or continuously (drugs added to final plating medium). Tumor cell colonies > 60 uM in size are counted by automated image analysis after 10-20 days of incubation in a humidified, 5-10% CO2-gassed environment maintained at 37°C. Inhibition of colony formation is calculated based on comparisons to control (untreated) plates wherein the growth of hundreds of colonies/plate is typical. (Salmon SE, et al., N Engl J Med 298(24):1321-1327, 1978).
(§2) Compounds of the present invention were tested for their in vitro activity in tumor cells sensitive and resistant to standard anti-cancer agents. The tumor cell lines used in this protocol are 8226 human Myeloma^1; 8226/Dox-40^2, L-1210/Murine Leukemia, multidrug resistant L-210/^3, 2780 Human Ovarian Cancer and 2780/AD^4. Each of these resistant cell lines is known as a multidrug resistant or "MDR" cell line. These cell lines produce a 170,00 molecular weight membrane protein termed the P-glycoprotein which acts as an active drug efflux pump. Thus, once a cell produces the P-glycoprotein, it has the capability of pumping out of the cell a large variety of unrelated natural products. […] The protocol for measuring the effectiveness of compounds of the present invention is as follows: 2) In Vitro Tumor Cell Viability Assays Using MTT-Dye: Tumors are processed into a single cell suspension as described above. The cells are plated at a concentration of 3-5 X 10^4/1 mL well into plastic 96-well plates. Growth medium containing 5-10% (vol/vol) heat-inactivated fetal bovine serum and penicillin/streptomycin (as above) is added prior to incubation at 37°C for six days. Afterwards the medium containing the drug is removed, the cells are "washed" by centrifugation in fresh medium or phosphate-buffered saline (pH 7.4). A tetrazolium dye is then added (3,4,5-dimethylthiazol-2-yl)-2,5-diphenyl tetrazolium bromide (MTT). This dye forms a colored formazan product upon activation by mitochondrial reductases in viable cells. Typically, the formazan product is solubilized in acid-propanol or DMSO. The intensity of the color is proportional to viable cell numbers and this is quantitated by spectrophotometric absorbance ([…]) on a micro ELISA plate reader. Test results are calibrated in % control absorbance from untreated tumor cells (Mossman T: J Immunol Meth 65:55-63, 1983). Using the above procedure, Compound 1 was tested for its cytotoxic activity with respect to various tumor cell lines.

LOVOp32 = experiment: as above; format: cell-based; conditions: cells plated 24 hr. prior to drug addition, read-out: Concentration for 50% inhibition of colony formation for human colon tumors
Procedure: as §1, §2

Colon-38 Adenocarcinoma = conditions: mice; cited from earlier work
[1] = system: 16-C Mammary Adenocarcinoma; conditions: cited from earlier work
[2] = system: P-388/ADR (adriamycin-Resis-tant); conditions: mice; cited from earlier work
[3] = system: P-388 lymphocytic leukemia; conditions: mice; cited from earlier work
M5-76 Sarcoma = conditions: cited from earlier work
SW80p105 = experiment: Activity against human colon tumor cells (MTT assay, 3 day drug exposure); format: cell-based; conditions: cells plated 24 hr. prior to drug addition, read-out: Concentration for 50% inhibition of colony formation for human colon tumors
Procedure: as §1
as §2, with “Growth medium containing 5-10% (vol/vol) heat-inactivated fetal bovine serum and penicillin/streptomycin (as above) is added prior to incubation at 37°C for six days.” left out

HT29p30 = experiment: as above; format: cell-based; conditions: cells plated 24 hr. prior to drug addition, read-out: Concentration for 50% inhibition of colony formation for human colon tumors
Procedure: as §1
as §2, with “Growth medium containing 5-10% (vol/vol) heat-inactivated fetal bovine serum and penicillin/streptomycin (as above) is added prior to incubation at 37°C for six days.” left out

FRESH HUMAN TUMORS = experiment: Colony forming assay in fresh human tumors, all tumor types; format: cell-based; conditions: Total of all tumor types; .001 ug/mL continuously; tumor cell survival of less than 50% of control
Procedure: as §1, with “The” for “For example, the compounds of the present invention were evaluated for cytotoxic activities in cloned human colon carcinomas. The”, “(Salmon SE, et al., N Engl J Med 298(24):1321-1327, 1978).” left out
Fresh human tumor specimens disaggregated to single cell suspensions and exposed to .001 ug/mL of drug continuously. Percent survival represents the fraction of tumor colonies (> 60 uM size) obtained after drug treatment compared to untreated cells of the same tumor. […] Each tumor sample is analyzed in three different petri dishes (i.e., n = 3 for each sample).

SMILES	IC50 (205p14) [nM]	IC50 (LOVOp32) [nM]	Comparative Activity From The Literature, Days of Tumor Growth Delay (Colon-38 Adenocarcinoma) [days]	Comparative Activity From The Literature, Days of Tumor Growth Delay [1] [days]	Comparative Activity From The Literature, ILS (Percentage Increased Lifespan) [2] [ILS]	Comparative Activity From The Literature, ILS (Percentage Increased Lifespan) [3] [ILS]	Comparative Activity From The Literature, Days of Tumor Growth Delay (M5-76 Sarcoma) [days]	IC50 (SW80p105) [nM]	IC50 (HT29p30) [nM]	Overall Response (FRESH HUMAN TUMORS) [%]
CN(C)CCN1C(=O)c2cccc3cc(N)cc(c23)C1=O [Amonafide, amino-N-dimethylaminoethylbenz[de]isoquinoline]	160	600	<7	7	35	99	7	570	960	
COc1cccc2c1C(=O)c1c(O)c3c(c(O)c1C2=O)C[C@@](O)(C(=O)CO)C[C@@H]3O[C@H]1C[C@H](N)[C@H](O)[C@H](C)O1 [Doxorubicin]			10		18	164				20
